ChEMBL document CHEMBL2331503, “Hx-amides: DNA sequence recognition by the fluorescent Hx (p-anisylbenzimidazole)•pyrrole and Hx•imidazole pairings” (Bioorg Med Chem Lett, 2013)
The source made the active and inactive calls. No cut-off for these calls is given here.

Tests used:
[1] = Binding affinity to 5'-AAATTT DNA assessed as change in melting temperature at 3 mol equivalent of compound-DNA
[2] = Binding affinity to 5'-ACCGGT DNA assessed as change in melting temperature at 3 mol equivalent of compound-DNA
[3] = Inhibition of 5'-ACCGGT cognate sequence containing 5'-32P labeled 131 base pair DNA (unknown origin) cleavage at 10 to 30 uM DNase I footprinting method
[4] = Binding affinity to cognate sequence of 5'-ACCGGT DNA at 1 mol equivalent by circular dichroism analysis
[5] = Binding affinity to 5'-ATGCAT DNA by surface plasmon resonance assay
[6] = Binding affinity to 5'-AGCGCT DNA by surface plasmon resonance assay
[7] = Binding affinity to cognate sequence of 5'-ACCGGT DNA by surface plasmon resonance assay
[8] = Binding affinity to 5'-ACGCGT DNA assessed as change in melting temperature at 3 mol equivalent of compound-DNA

- ΔTm [1]: 5 °C
- ΔTm [2]: 5 °C
- inhibition [3]: Active
- Activity [4]: Active
- K [5]: 1 ×10⁶ /M
- K [6]: 5 ×10⁵ /M
- K [7]: 2 ×10⁶ /M
- ΔTm [8]: 0 °C
SMILES: COc1ccc(-c2nc3ccc(C(=O)Nc4cn(C)c(C(=O)Nc5cn(C)c(C(=O)NCCN(C)C)n5)n4)cc3[nH]2)cc1
